Biological target: T1, Mtb proteasome (Mycobacterium tuberculosis, UniProt P9WHT9)
T1 construct: Proteasome activity of the supernatants was assessed; endogenous in cells; host or cells: Mycobacterium tuberculosis H37Ra (crude lysate supernatant)
Test: biochemical
Conditions: not given

T1 sequence (P9WHT9 58-291): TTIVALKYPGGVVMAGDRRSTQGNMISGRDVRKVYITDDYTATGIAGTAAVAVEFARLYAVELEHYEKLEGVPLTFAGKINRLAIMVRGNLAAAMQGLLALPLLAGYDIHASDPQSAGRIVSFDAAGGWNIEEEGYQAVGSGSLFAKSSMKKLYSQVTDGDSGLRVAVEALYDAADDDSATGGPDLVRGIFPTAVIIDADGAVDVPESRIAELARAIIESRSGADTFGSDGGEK
T1 sequence (P9WHU1 whole entry partner): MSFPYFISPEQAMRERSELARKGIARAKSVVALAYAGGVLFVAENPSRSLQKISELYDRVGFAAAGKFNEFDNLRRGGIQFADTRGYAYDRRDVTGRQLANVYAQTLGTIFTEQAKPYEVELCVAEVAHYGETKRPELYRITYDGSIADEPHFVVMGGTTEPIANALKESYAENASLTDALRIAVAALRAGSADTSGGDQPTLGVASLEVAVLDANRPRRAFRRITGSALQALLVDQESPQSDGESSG

Compound | IA: inhibitory activity of Mtb proteasome [%] | IC50 [µM]
COc1cc2ccc(=O)oc2c(O[C@@H]2O[C@H](CO)[C@@H](O)[C@H](O)[C@H]2O)c1O [fraxin] | 0.00 | 
CC1=C(O)C(=O)C=C2C1=CC=C1[C@@]2(C)CC[C@@]2(C)[C@@H]3C[C@](C)(C(=O)O)CC[C@]3(C)CC[C@]12C [tripterine] |  | 114
O=C(O)[C@H]1O[C@@H](Oc2cc3oc(-c4ccccc4)cc(=O)c3c(O)c2O)[C@H](O)[C@@H](O)[C@@H]1O [baicalin] |  | 83.5
COc1c(O[C@@H]2O[C@H](C(=O)O)[C@@H](O)[C@H](O)[C@H]2O)cc(O)c2c(=O)cc(-c3ccccc3)oc12 [wogonoside] | 59.01 | 
COc1ccc(-c2cc(=O)c3c(O)c(OC)c(O[C@@H]4O[C@H](CO[C@@H]5O[C@@H](C)[C@H](O)[C@@H](O)[C@H]5O)[C@@H](O)[C@H](O)[C@H]4O)cc3o2)cc1 [pectolinarin] |  | 50
COc1ccc2cc1Oc1ccc(cc1)C[C@H]1c3cc(c(OC)cc3CCN1C)Oc1c(OC)c(OC)cc3c1[C@H](C2)N(C)CC3 [hanfangchin A] | 0.00 | 
O=c1oc2c(O)c(O)cc3c(=O)oc4c(O)c(O)cc1c4c23 [gallogen] | 62.50 | 
dipsacoside | 0.00 | 
COc1ccc(-c2oc3c(CC=C(C)C)c(O[C@@H]4O[C@H](CO)[C@@H](O)[C@H](O)[C@H]4O)cc(O)c3c(=O)c2O[C@@H]2O[C@@H](C)[C@H](O)[C@@H](O)[C@H]2O)cc1 [icarrin, icariin] |  | 88.7
C=C[C@H]1[C@H](O[C@@H]2O[C@H](CO)[C@@H](O)[C@H](O)[C@H]2O)OC=C2C(=O)OCC[C@]21O [swertiamain] | 14.39 | 

Same assay, conditions: 0.5 h, read-out: IA: inhibitory activity of Mtb proteasome

Compound | inhibition at 200 µM [%]
CC(C)=CC[C@H](O)C1=CC(=O)c2c(O)ccc(O)c2C1=O [alkannin] | 52.4
CC1=C(O)C(=O)C=C2C1=CC=C1[C@@]2(C)CC[C@@]2(C)[C@@H]3C[C@](C)(C(=O)O)CC[C@]3(C)CC[C@]12C [tripterine] | > 65
Oc1ccc(/C=C/c2cc(O)cc(O)c2)cc1 [resveratrol] | 0
O=C(O)[C@H]1O[C@@H](Oc2cc3oc(-c4ccccc4)cc(=O)c3c(O)c2O)[C@H](O)[C@@H](O)[C@@H]1O [baicalin] | > 65
CC1(C)[C@@H](O)CC[C@]2(C)[C@H]3C(=O)C=C4[C@@H]5C[C@@](C)(C(=O)O)CC[C@]5(C)CC[C@@]4(C)[C@]3(C)CC[C@@H]12 [glycyrrhetinic Acid] | 0
O=C1c2cccc(O)c2C(=O)c2c(O)cc(CO)cc21 [aloe-emodin] | 34.3
CC(C)(C)[C@]1(O)CC2OC(=O)CC23C(=O)OC2OC(=O)[C@H](O)C231 (stereo partly drawn) [bilobalide] | 18.6
COc1cc2ccc(=O)oc2cc1OC [scoparone] | 0
C[C@@]12C[C@@]3(O)O[C@@H](O1)[C@]1(COC(=O)c4ccccc4)[C@H]3C[C@@]12O[C@@H]1O[C@H](CO)[C@@H](O)[C@H](O)[C@H]1O [paeoniflorin] | 3.05
OC[C@H]1O[C@@H](Oc2cc(O)cc(/C=C/c3ccc(O)cc3)c2)[C@H](O)[C@@H](O)[C@@H]1O [polydatin] | 0
O=c1c(-c2ccc(O)cc2)coc2cc(O)cc(O)c12 [genistein] | 45.7
CC(=O)O[C@H]1C(=O)[C@@]2(C)[C@H]([C@H](OC(=O)c3ccccc3)[C@]3(O)C[C@H](OC(=O)[C@H](O)[C@@H](NC(=O)c4ccccc4)c4ccccc4)C(C)=C1C3(C)C)[C@]1(OC(C)=O)CO[C@@H]1C[C@@H]2O [paclitaxel, reference compound] | 0
O=c1c(-c2ccc(O)cc2)coc2c([C@@H]3O[C@H](CO)[C@@H](O)[C@H](O)[C@H]3O)c(O)ccc12 [puerarin] | 0
O=C1C[C@@H]2OCC=C3CN4CC[C@]56c7ccccc7N1[C@H]5[C@H]2[C@H]3C[C@H]46 [strychnine] | 0
O=c1ccc2ccc(O)cc2o1 [umbelliferone] | 0
COc1ccc2cc3[n+](cc2c1OC)CCc1cc2c(cc1-3)OCO2 [berberine] | 0
COc1ccc(-c2oc3c(CC=C(C)C)c(O[C@@H]4O[C@H](CO)[C@@H](O)[C@H](O)[C@H]4O)cc(O)c3c(=O)c2O[C@@H]2O[C@@H](C)[C@H](O)[C@@H](O)[C@H]2O)cc1 [icarrin, icariin] | > 65
